By IC50 is commonly meant the concentration that gives 50% inhibition.

The subject of one assay is Aβ1-42 production. Kind of assay: Cellular assay for inhibition of Aβ1-42 production (H4 APP751 SWE clone 8.20). The format is cell-based. The settings on record: 19 h, H4 APP751 SWE clone 8.20 cells, 19 h incubation; class symbols; read-out: Activity Rating (Aβ42 cellular IC50). In a few lines:
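Inhibition values are IC50s fitted to Viewlux counts after a 19 h compound exposure at 37 °C. Aβ42 was captured by the neoepitope-specific antibody 565 (0.8 ng/well) paired with N-terminal 26D6 (75 ng/well), incubated overnight at 4 °C in pH 7.4 Tris-HCl buffer containing 0.2% BSA.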
For the compound `COc1cc(Nc2ncc3c(n2)C(c2ccc(F)cc2)CCC3)ccc1-n1cnc(Cl)c1` (stereo not drawn) [Example 128, N-(4-(4-Chloro-1H-imidazol-1-yl)-3-methoxyphenyl)-8-(4-fluorophenyl)-5,6,7,8-tetrahydroquinazolin-2-amine], the IC50 was in the range of 100 to 1000 nM. As to `COc1cc(Nc2nc3c(c(N4CC(F)(F)C4)n2)CCC3c2ccc(F)cc2)ccc1-n1cnc(Cl)c1` (stereo not drawn) [Example 15, N-(4-(4-Chloro-1H-imidazol-1-yl)-3-methoxyphenyl)-4-(3,3-difluoroazetidin-1-yl)-7-(4-fluorophenyl)-6,7-dihydro-5H-cyclopenta[d]pyrimidin-2-amine], the IC50 was in the range of 10 to 100 nM.

With `CNc1nc(Nc2ccc(-n3cnc(C)n3)c(F)c2)nc2c1CCOC2c1ccccc1` (stereo not drawn) [Example 86, N2-(3-fluoro-4-(3-methyl-1H-1,2,4-triazol-1-yl)phenyl)-N4-methyl-8-phenyl-6,8-dihydro-5H-pyrano[3,4-d]pyrimidine-2,4-diamine], the IC50 is 10 to 100 nM. With `CCNc1nc(Nc2ccc(-n3cnc(C)n3)c(F)c2)nc2c1CN(CC(F)F)CC2c1ccccc1` (stereo not drawn) [Example 195B, 6-(2,2-difluoroethyl)-N4-ethyl-N2-(3-fluoro-4-(3-methyl-1H-1,2,4-triazol-1-yl)phenyl)-8-phenyl-5,6,7,8-tetrahydropyrido[4,3-d]pyrimidine-2,4-diamine], the IC50 lay in the range of 100 to 1000 nM. The same measure, in the same setting: to `CNc1nc(Nc2ccc3nc(C)sc3c2)nc2c1CCC2c1ccccc1` (stereo not drawn) [Example 255, N4-methyl-N2-(2-methylbenzo[d]thiazol-6-yl)-7-phenyl-6,7-dihydro-5H-cyclopenta[d]pyrimidine-2,4-diamine] belongs greater than 1000 nM; to `CNc1nc(Nc2ccc(-n3cnc(C)n3)c(OC)c2)nc2c1CC[C@@]2(C)c1ccc(F)cc1` (single isomer, unassigned) [Example 265A], 10 to 100 nM; to `COc1cc(Nc2nc3c(c(N4CCC4)n2)CCC3c2ccccc2)ccc1-n1cnc(Cl)c1` (stereo not drawn) [Example 6, 4-(Azetidin-1-yl)-N-(4-(4-chloro-1H-imidazol-1-yl)-3-methoxyphenyl)-7-phenyl-6,7-dihydro-5H-cyclopenta[d]pyrimidin-2-amine], 10 to 100 nM. The same measure, in the same setting: the figure for `COc1cc(Nc2nc3c(c(N(C)C)n2)CCC3c2ccccc2)ccc1-n1cnc(Cl)c1` (stereo not drawn) [Example 4, N^2-(4-(4-Chloro-1H-imidazol-1-yl)-3-methoxyphenyl)-N^4,N^4-dimethyl-7-phenyl-6,7-dihydro-5H-cyclopenta[d]pyrimidine-2,4-diamine] is 1.5 to 9.9 nM; for `COc1cc(Nc2nc3c(c(N4CCC5(C4)OCCO5)n2)CCC3c2ccccc2)ccc1-n1cnc(Cl)c1` (stereo not drawn) [Example 205, N-(4-(4-chloro-1H-imidazol-1-yl)-3-methoxyphenyl)-7-phenyl-4-(1,4-dioxa-7-azaspiro[4.4]nonan-7-yl)-6,7-dihydro-5H-cyclopenta[d]pyrimidin-2-amine] it is 10 to 100 nM. Same read-out and setting: to `CCNc1nc(Nc2ccc(-n3cnc(Cl)c3)c(OC)c2)nc2c1CCOC2c1ccc(F)cc1` (stereo not drawn) [Example 88B, N2-(4-(4-chloro-1H-imidazol-1-yl)-3-methoxyphenyl)-N4-ethyl-8-(4-fluorophenyl)-6,8-dihydro-5H-pyrano[3,4-d]pyrimidine-2,4-diamine] belongs 10 to 100 nM.

The same assay, now with this note: 19 h, H4 APP751 SWE clone 8.20 cells, 19 h incubation; read-out: Activity Rating (Aβ42 cellular IC50), numeric value.
With `CNc1nc(Nc2ccc(-n3cnc(C#N)c3)c(OC)c2)nc2c1CCC2c1ccccc1` (stereo not drawn) [Example 204, 1-(2-methoxy-4-(4-(methylamino)-7-phenyl-6,7-dihydro-5H-cyclopenta[d]pyrimidin-2-ylamino)phenyl)-1H-imidazole-4-carbonitrile], the IC50 was found to be 19 nM. On to `CNc1nc(Nc2ccc(-n3cnc(C)n3)c(OC)c2)nc2c1CCC2c1ccc(F)cc1` (racemic) [Example 44, 7-(4-fluorophenyl)-N2-(3-methoxy-4-(3-methyl-1H-1,2,4-triazol-1-yl)phenyl)-N4-methyl-6,7-dihydro-5H-cyclopenta[d]pyrimidine-2,4-diamine], for which the IC50 was 13 nM.

Staying with this assay, now noted: H4 APP751 SWE clone 8.20 cells, 19 h incubation; class symbols; read-out: Activity Rating (Aβ42 cellular IC50).
As for `CNc1nc(Nc2ccc(-n3cnc(Cl)c3)c(OC)c2)nc2c1COCC2c1ccc(Cl)cc1` (single isomer, unassigned) [Example 64A, N^2-(4-(4-chloro-1H-imidazol-1-yl)-3-methoxyphenyl)-8-(4-chlorophenyl)-N^4-methyl-7,8-dihydro-5H-pyrano[4,3-d]pyrimidine-2,4-diamine], the IC50 lay in the range of 1.5 to 9.9 nM. `CCNc1nc(Nc2ccc(-n3ncnc3C)c(F)c2)nc2c1CN(S(C)(=O)=O)CC2c1ccccc1` (stereo not drawn) [Example 140A, N4-ethyl-N2-(3-fluoro-4-(5-methyl-1H-1,2,4-triazol-1-yl)phenyl)-6-(methylsulfonyl)-8-phenyl-5,6,7,8-tetrahydropyrido[4,3-d]pyrimidine-2,4-diamine]: the IC50 was in the range of 1.5 to 9.9 nM. The same measure, in the same setting: the figure for `CNc1nc(Nc2ccc(-n3ncnc3C)c(F)c2)nc2c1COC2c1ccc(F)cc1` (stereo not drawn) [Example 82B, N2-(3-fluoro-4-(5-methyl-1H-1,2,4-triazol-1-yl)phenyl)-7-(4-fluorophenyl)-N4-methyl-5,7-dihydrofuro[3,4-d]pyrimidine-2,4-diamine] is 10 to 100 nM; for `COc1cc(Nc2nc3c(c(N4CC[C@H](F)C4)n2)COC3c2ccc(F)cc2)ccc1-n1cnc(Cl)c1` (single isomer, unassigned) [Example 77] it is 10 to 100 nM. For the compound `CCN(C)c1nc(Nc2ccc(-n3cnc(Cl)c3)c(OC)c2)nc2c1CCN(S(C)(=O)=O)C2c1ccc(F)cc1` (stereo not drawn) [Example 172B, N2-(4-(4-chloro-1H-imidazol-1-yl)-3-methoxyphenyl)-N4-ethyl-8-(4-fluorophenyl)-N4-methyl-7-(methylsulfonyl)-5,6,7,8-tetrahydropyrido[3,4-d]pyrimidine-2,4-diamine], the IC50 was in the range of 100 to 1000 nM. On the same count and under the same terms, the figure for `COc1cc(Nc2nc3c(c(N4CC(Cl)C4)n2)CCC3c2ccccc2)ccc1-n1cnc(Cl)c1` (stereo not drawn) [Example 181, N-(4-(4-chloro-1H-imidazol-1-yl)-3-methoxyphenyl)-4-(3-chloroazetidin-1-yl)-7-phenyl-6,7-dihydro-5H-cyclopenta[d]pyrimidin-2-amine] is 10 to 100 nM. As to `COc1cc(Nc2nc3c(c(N4CCCC4C)n2)CCC3c2ccc(F)cc2)ccc1-n1cnc(Cl)c1` (single isomer, unassigned) [Example 20B, N-(4-(4-chloro-1H-imidazol-1-yl)-3-methoxyphenyl)-7-(4-fluorophenyl)-4-(2-methylpyrrolidin-1-yl)-6,7-dihydro-5H-cyclopenta[d]pyrimidin-2-amine], the IC50 was in the range of 10 to 100 nM.

As to `COc1cc(Nc2nc3c(c(N4CCC4)n2)CCC3c2ccc(OC(F)(F)F)cc2)ccc1-n1cnc(Cl)c1` (single isomer, unassigned) [Example 101A, 4-(azetidin-1-yl)-N-(4-(4-chloro-1H-imidazol-1-yl)-3-methoxyphenyl)-7-(4-(trifluoromethoxy)phenyl)-6,7-dihydro-5H-cyclopenta[d]pyrimidin-2-amine], the concentration for half-maximal inhibition (IC50) is 1.5 to 9.9 nM.

Turning to `CNc1nc(Nc2ccc(C#N)c(C(F)(F)F)c2)nc2c1CCC2c1ccccc1` (stereo not drawn) [Example 238, 4-(4-(methylamino)-7-phenyl-6,7-dihydro-5H-cyclopenta[d]pyrimidin-2-ylamino)-2-(trifluoromethyl)benzonitrile], the IC50 lay in the range of 100 to 1000 nM.

These data come from patent US8637525B2, “Compounds for the reduction of beta-amyloid production” (Bristol-Myers Squibb Company, priority 2009, dated 2014).
